Target: HiBit-KRAS^G12C (Homo sapiens, UniProt P01116, G12C)
Experiment: HiBit degradation assay in SW1573 HiBit-KRas^G12C cells
Format: cell-based
Design: expressed in transfected cells; host or cells: SW1573 (clone E6), modified pcDNA3.1 vector, TK promoter
Conditions: 0.1% DMSO, 24 hours; for Dmax: SW1573, SW1573 HiBit-KRas^G12C, read-out: KRas^G12C-HiBit (SW1573; 0.1% DMSO) Dmax**; for DC50: SW1573 HiBit-KRas^G12C, read-out: KRas^G12C-HIBit (SW1573; 0.1% DMSO) DC50*
Method: Reagents. SW1573 (CRL-2170) and MiaPaCa-2 (CRL-1420) cells were purchased from ATCC. Both cell lines are […] for the G12C mutation in KRAS. SW1573 cells were cultured in DMEM+F12+Glutamax (+Sodium Bicarbonate, +sodium pyruvate, Thermofisher scientific, #10565) supplemented with 10% FBS (Thermofisher scientific, #2060357) and 1% Antibiotic-Antimycotic (Thermofisher scientific, #15240096). MiaPaCa-2 cells were cultured in DMEM+Glutamax media (Thermofisher scientific, #10566) supplemented with 10% FBS (Thermofisher scientific, #2060357) and 1% Antibiotic-Antimycotic (Thermofisher scientific, #15240096). For degradation assays, 384 well plates were purchased from Corning (Corning® CellBIND® 384-well Flat Clear Bottom Black Polystyrene Microplates, Low Flange, #3770). Gambogic acid was purchased from Selleckchem (#S2448). Alamar blue was purchased from Thermofisher scientific (A50101) and used according to manufacturer instructions. The Nano-Glo® HiBit Lytic Detection System and Nano-Glo® HiBit Blotting System were purchased from Promega (#N3050 and #N2410) and used according to manufacturer instructions.
To create the SW1573 HiBit-KRAS^G12C cell line, the nucleotide sequence encoding the 11 amino acid HiBit tag from Promega (Schwinn, M. K. et al. (2018) CRISPR-mediated tagging of endogenous proteins with a luminescent peptide. ACS Chem. Biol. 13(2), 467-474) was appended to the N-terminus of the KRAS^G12C coding sequence. This synthesized DNA was cloned into a modified pcDNA3.1 vector under the control of the thymidine kinase (TK) promoter. This HiBit-KRAS^G12C expressing plasmid was transfected into parental SW1573 cells and colonies were selected using 400 μg/mL zeocin. The resulting clonal lines were screened for expression of HiBit-KRAS^G12C protein using Nano-Glo® HiBit Blotting System. A luminescent band of the correct size for HiBit-KRAS^G12C was detected in several clones. Clone E6 was selected for further studies.
Either SW1573 HiBit-KRas^G12C or MiaPaCa-2 HiBit-KRas^G12C cells were plated at 9000 cells/well in a 384 well plate (Corning #3770). Exemplary heterobifunctional molecules and positive controls were diluted in the appropriate cell media and applied to the plated cells resulting in a final concentration titration of 10 μM to 20 nM in either 0.1% or 0.5% dimethyl sulfoxide (DMSO). Gambogic acid was used as a positive control for cytotoxicity and titrated from 10 μM to 78 nM. All assays were performed in triplicate. Cells were treated with compounds for 24 hours at 37° C. in an incubator containing 5% CO2. Following treatment, alamar blue was used to determine if any compounds led to a loss in cell viability after 24 hours. The 10× alamar blue reagent was added to a final concentration of 1× as recommended by the manufacturer and cells were returned to the incubator for 4 hours. Plates were then allowed to equilibrate to room temperature and fluorescence was measured using a Perkin-Elmer EnVision. After completion of the fluorescence read, the liquid from each well was removed and the cells were washed with PBS. The Nano-Glo® HiBiT detection reagent was prepared according to the manufacturer's instructions and added to each well after the PBS wash was removed. Following incubation at room temperature for 45 minutes, the luminescence was read using the ultra-sensitive luminescence aperture on the Envision instrument.
Fluorescence values from the alamar blue treatment were normalized to the DMSO only control for each compound titration. We hypothesized that compounds that led to a ≥50% loss in cell viability of the KRAS-independent SW1573 HiBit-KRas^G12C cells were likely generally cytotoxic and loss of HiBit-KRAS^G12C signal from these compounds may be due to lower cell number and not specific KRAS^G12C degradation. These points were therefore excluded from the data analysis for degradation. […]

Sequence of HiBit-KRAS^G12C (P01116 1-186 isoform P01116-2 G12C limits assumed): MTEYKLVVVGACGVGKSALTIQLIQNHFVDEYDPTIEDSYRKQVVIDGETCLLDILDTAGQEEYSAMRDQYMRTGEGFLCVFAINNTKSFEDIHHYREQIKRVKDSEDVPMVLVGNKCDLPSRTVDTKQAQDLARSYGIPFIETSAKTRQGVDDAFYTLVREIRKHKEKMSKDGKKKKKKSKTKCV

| Dmax [%] | DC50 [µM] | SMILES |
| --- | --- | --- |
| – | > 1 | C=CC(=O)N1CCN(c2nc(O[C@H](C)CN3CCC(CN4CC5(CN(CC(=O)N[C@H](C(=O)N6C[C@H](O)C[C@H]6C(=O)N[C@@H](C)c6ccc(-c7scnc7C)cc6)C(C)(C)C)C5)C4)CC3)nc3c(F)c(-c4cc(O)cc5ccccc45)c(Cl)cc23)CC1 [Compound 35, (2S,4R)-1-[(2S)-2-{2-[6-({1-[(2R)-2-{[6-chloro-8-fluoro-7-(3-hydroxynaphthalen-1-yl)-4-[4-(prop-2-enoyl)piperazin-1-yl]quinazolin-2-yl]oxy}propyl]piperidin-4-yl}methyl)-2,6-diazaspiro[3.3]heptan-2-yl]acetamido}-3,3-dimethylbutanoyl]-4-hydroxy-N-[(1S)-1-[4-(4-methyl-1,3-thiazol-5-yl)phenyl]ethyl]pyrrolidine-2-carboxamide] |
| – | > 1 | C=CC(=O)N1CCN(c2nc(O[C@H](C)CN3CCC(CC(=O)N[C@H](C(=O)N4C[C@H](O)C[C@H]4C(=O)N[C@@H](C)c4ccc(-c5scnc5C)cc4)C(C)(C)C)CC3)nc3c(F)c(-c4cc(O)cc5ccccc45)c(Cl)cc23)CC1 [Compound 38, (2S,4R)-1-[(2S)-2-(2-{1-[(2R)-2-{[6-chloro-8-fluoro-7-(3-hydroxynaphthalen-1-yl)-4-[4-(prop-2-enoyl)piperazin-1-yl]quinazolin-2-yl]oxy}propyl]piperidin-4-yl}acetamido)-3,3-dimethylbutanoyl]-4-hydroxy-N-[(1S)-1-[4-(4-methyl-1,3-thiazol-5-yl)phenyl]ethyl]pyrrolidine-2-carboxamide] |
| < 35 | > 1 | C=CC(=O)N1CCN(c2nc(O[C@H](C)CN3CC(COCC(=O)N[C@H](C(=O)N4C[C@H](O)C[C@H]4C(=O)N[C@@H](C)c4ccc(-c5scnc5C)cc4)C(C)(C)C)C3)nc3c(F)c(-c4cc(O)cc5ccccc45)c(Cl)cc23)CC1 [Compound 42, (2S,4R)-1-[(2S)-2-[2-({1-[(2R)-2-{[6-chloro-8-fluoro-7-(3-hydroxynaphthalen-1-yl)-4-[4-(prop-2-enoyl)piperazin-1-yl]quinazolin-2-yl]oxy}propyl]azetidin-3-yl}methoxy)acetamido]-3,3-dimethylbutanoyl]-4-hydroxy-N-[(1S)-1-[4-(4-methyl-1,3-thiazol-5-yl)phenyl]ethyl]pyrrolidine-2-carboxamide] |

More lines, now with the values behind:

| SMILES | Dmax [%] | DC50 [µM] |
| --- | --- | --- |
| C=CC(=O)N1CCN(c2nc(O[C@H](C)CN3CCC(OCCOCC(=O)N[C@H](C(=O)N4C[C@H](O)C[C@H]4C(=O)N[C@@H](C)c4ccc(-c5scnc5C)cc4)C(C)(C)C)CC3)nc3c(Oc4c(Cl)c(F)cc5[nH]ncc45)nc(Cl)cc23)CC1 [Compound 26, (2S,4R)-1-[(2S)-2-{2-[2-({1-[(2R)-2-({6-chloro-8-[(5-chloro-6-fluoro-1H-indazol-4-yl)oxy]-4-[4-(prop-2-enoyl)piperazin-1-yl]pyrido[3,4-d]pyrimidin-2-yl}oxy)propyl]piperidin-4-yl}oxy)ethoxy]acetamido}-3,3-dimethylbutanoyl]-4-hydroxy-N-[(1S)-1-[4-(4-methyl-1,3-thiazol-5-yl)phenyl]ethyl]pyrrolidine-2-carboxamide] | 35 to 70 | > 1 |
| C=C(F)C(=O)N1CCN(c2nc(O[C@H](C)CN3CCC(COCC(=O)N[C@H](C(=O)N4C[C@H](O)C[C@H]4C(=O)N[C@@H](C)c4ccc(-c5scnc5C)cc4)C(C)(C)C)CC3)nc3c(F)c(-c4cc(O)cc5ccccc45)c(Cl)cc23)CC1 [Compound 27, (2S,4R)-1-[(2S)-2-[2-({1-[(2R)-2-({6-chloro-8-fluoro-4-[4-(2-fluoroprop-2-enoyl)piperazin-1-yl]-7-(3-hydroxynaphthalen-1-yl)quinazolin-2-yl}oxy)propyl]piperidin-4-yl}methoxy)acetamido]-3,3-dimethylbutanoyl]-4-hydroxy-N-[(1S)-1-[4-(4-methyl-1,3-thiazol-5-yl)phenyl]ethyl]pyrrolidine-2-carboxamide] | < 35 | > 1 |
| C=CC(=O)N1CCN(c2nc(OCCN3CCC(OCCOCC(=O)N[C@H](C(=O)N4C[C@H](O)C[C@H]4C(=O)N[C@@H](C)c4ccc(-c5scnc5C)cc4)C(C)(C)C)CC3)nc3c2CCN(c2cccc4cccc(C)c24)C3)C[C@@H]1CC#N [Compound 30, (2S,4R)-1-[(2S)-2-{2-[2-({1-[2-({4-[(3S)-3-(cyanomethyl)-4-(prop-2-enoyl)piperazin-1-yl]-7-(8-methylnaphthalen-1-yl)-5H,6H,7H,8H-pyrido[3,4-d]pyrimidin-2-yl}oxy)ethyl]piperidin-4-yl}oxy)ethoxy]acetamido}-3,3-dimethylbutanoyl]-4-hydroxy-N-[(1S)-1-[4-(4-methyl-1,3-thiazol-5-yl)phenyl]ethyl]pyrrolidine-2-carboxamide] | < 35 | > 1 |
| C=CC(=O)N1CCN(c2nc(O[C@H](C)CN3CCC(OCCOCC(=O)N[C@H](C(=O)N4C[C@H](O)C[C@H]4C(=O)N[C@@H](C)c4ccc(-c5scnc5C)cc4)C(C)(C)C)CC3)nc3c(F)c(-c4c(O)cccc4F)c(Cl)cc23)C[C@H]1C [Compound 44, (2S,4R)-1-[(2S)-2-{2-[2-({1-[(2R)-2-{[6-chloro-8-fluoro-7-(2-fluoro-6-hydroxyphenyl)-4-[(3R)-3-methyl-4-(prop-2-enoyl)piperazin-1-yl]quinazolin-2-yl]oxy}propyl]piperidin-4-yl}oxy)ethoxy]acetamido}-3,3-dimethylbutanoyl]-4-hydroxy-N-[(1S)-1-[4-(4-methyl-1,3-thiazol-5-yl)phenyl]ethyl]pyrrolidine-2-carboxamide] | – | > 1 |
| C=CC(=O)N1CCN(c2nc(O[C@H](C)CN3CCC(CN(C)[C@H]4C[C@@H](OCC(=O)N[C@H](C(=O)N5C[C@H](O)C[C@H]5C(=O)N[C@@H](C)c5ccc(-c6scnc6C)cc5)C(C)(C)C)C4)CC3)nc3c(F)c(-c4cc(O)cc5ccccc45)c(Cl)cc23)CC1 [Compound 47, (2S,4R)-1-[(2S)-3,3-dimethyl-2-(2-[(1s,3s)-3-[({1-[(2R)-2-{[6-chloro-8-fluoro-7-(3-hydroxynaphthalen-1-yl)-4-[4-(prop-2-enoyl)piperazin-1-yl]quinazolin-2-yl]oxy}propyl]piperidin-4-yl}methyl)(methyl)amino]cyclobutoxy]acetamido}butanoyl]-4-hydroxy-N-[(1S)-1-[4-(4-methyl-1,3-thiazol-5-yl)phenyl]ethyl]pyrrolidine-2-carboxamide] | – | > 1 |
| C=CC(=O)N1CCN(c2nc(O[C@H](C)CN3CCN(CCCC4CCN(CC(=O)N[C@H](C(=O)N5C[C@H](O)C[C@H]5C(=O)N[C@@H](C)c5ccc(-c6scnc6C)cc5)C(C)(C)C)CC4)CC3)nc3c(F)c(-c4cc(O)cc5ccccc45)c(Cl)cc23)CC1 [Compound 52, (2S,4R)-1-[(2S)-2-{2-[4-(3-{4-[(2R)-2-{[6-chloro-8-fluoro-7-(3-hydroxynaphthalen-1-yl)-4-[4-(prop-2-enoyl)piperazin-1-yl]quinazolin-2-yl]oxy}propyl]piperazin-1-yl}propyl)piperidin-1-yl]acetamido}-3,3-dimethylbutanoyl]-4-hydroxy-N-[(1S)-1-[4-(4-methyl-1,3-thiazol-5-yl)phenyl]ethyl]pyrrolidine-2-carboxamide] | – | > 1 |

Source: patent US20220370416A1, “COMPOUNDS AND METHODS FOR TARGETED DEGRADATION OF KRAS” (Arvinas Operations, Inc., priority 2020, published 2022)
